Legend:
[1] = Powder dissolution in phosphate buffer pH 6 at 25° C., concentration by HPLC; format: physicochemical; details: phosphate buffer pH 6, 25° C.
Description: Powder dissolution experiments were carried out in phosphate buffer pH 6 at 25° C. for form A of roxadustat and the L-proline co-crystal of the present invention. The respective concentrations were determined by HPLC at a wavelength of 254 nm.

[2] = Thermogravimetric analysis (mass loss on heating); format: physicochemical; details: 10 K/min
Description: The sample (16.28 mg) was heated in a 100 microliter aluminum pan closed with an aluminum lid. The lid was automatically pierced at the beginning of the measurement. The sample was heated from 25 to 250° C. at a rate of 10 K/min. Nitrogen (purge rate 50 mL/min) was used as purge gas.
For example mass losses of only about 0.1 weight % up to a temperature of about 180° C., about 0.2 weight % up to a temperature of about 190° C. and about 0.3 weight % up to a temperature of about 200° C. were observed, which further proves the presence of an anhydrous and non-solvated co-crystal.

[3] = Stability against pressure (IR press, PXRD); format: physicochemical; details: pressed to a pellet at about 100 kN, ground again
Source text: The pellet was ground again in order to obtain a powder, which was then investigated by PXRD.

[4] = Differential scanning calorimetry (thermal stability); format: physicochemical; details: 25 to 250° C. at 10 K/min
Description: The roxadustat L-proline co-crystal according to the present invention was investigated by DSC, which was performed on a Mettler Polymer DSC R instrument. The sample (2.72 mg) was heated in a 40 microliter aluminium pan with a pierced aluminium lid from 25 to 250° C. at a rate of 10 K/min. Nitrogen (purge rate 50 mL/min) was used as purge gas.

[5] = Stability against temperature and moisture (40° C., 75% RH, PXRD); format: physicochemical; details: 75% relative humidity, 7 days
[6] = Stability against mechanical stress (dry grinding, PXRD); format: physicochemical; details: dry ground 20 minutes, 25 vibrations per second
Description: A 1.5 mL grinding jar with one ball (5 mm diameter) both made of stainless steel was fed with about 70 mg sample and ground for 20 minutes at a frequency of 25 vibrations per second.

[7] = TGA curves of WO 2014/014835 A2; cited from earlier work
[8] = FIGS. 4, 6 and 8 of WO 2014/014835 A2; cited from earlier work

## Cc1nc(C(=O)NCC(=O)O)c(O)c2ccc(Oc3ccccc3)cc12 [roxadustat form A, [(4-hydroxy-1-methyl-7-phenoxyisoquinoline-3-carbonyl)amino]acetic acid, reference compound]
[1]; 1 min
  Concentration roxadustat (dissolution profile): 30 µg/mL
[1]; 5 min
  Concentration roxadustat (dissolution profile): 50 µg/mL
[1]; 15 min
  Concentration roxadustat (dissolution profile): 60 µg/mL
[1]; 30 min
  Concentration roxadustat (dissolution profile): 50 µg/mL
[1]; 60 min
  Concentration roxadustat (dissolution profile): 60 µg/mL
[1]; 180 min
  Concentration roxadustat (dissolution profile): 70 µg/mL

## Cc1nc(C(=O)NCC(=O)O)c(O)c2ccc(Oc3ccccc3)cc12 [roxadustat L-proline co-crystal]
[2]; up to about 180° C.
  TGA mass loss: about 0.1 weight %
[2]; up to about 190° C.
  TGA mass loss: about 0.2 weight %
[2]; up to about 200° C.
  TGA mass loss: about 0.3 weight %
[3]
  phase changes according to powder X-ray diffraction: no phase changes occured
[1]
  time after which the complex falls apart in aqueous solution into its pure components: about 5 minutes
[1]; 1 min, listed as roxadustat L-prolin co-crystal
  Concentration roxadustat (dissolution profile): 660 µg/mL
[1]; 5 min, listed as roxadustat L-prolin co-crystal
  Concentration roxadustat (dissolution profile): 30 µg/mL
[1]; 15 min, listed as roxadustat L-prolin co-crystal
  Concentration roxadustat (dissolution profile): 20 µg/mL
[1]; 30 min, listed as roxadustat L-prolin co-crystal
  Concentration roxadustat (dissolution profile): 40 µg/mL
[1]; 60 min, listed as roxadustat L-prolin co-crystal
  Concentration roxadustat (dissolution profile): 100 µg/mL
[1]; 180 min, listed as roxadustat L-prolin co-crystal
  Concentration roxadustat (dissolution profile): 90 µg/mL
[4]
  thermal events in DSC until melting: neither phase changes nor desolvation events are detectable until the sample melts
[5]
  phase changes according to powder X-ray diffraction: no phase changes occurred
[6]
  phase changes according to powder X-ray diffraction: no phase changes occured

## Cc1nc(C(=O)NCC(=O)O)c(O)c2ccc(Oc3ccccc3)cc12.Cc1nc(C(=O)NCC(=O)O)c(O)c2ccc(Oc3ccccc3)cc12.O [form B]
[7]
  solvent/water loss upon heating (TGA): readily lose their solvents/water upon heating
[8]
  phase transformation during DSC experiments: at least partially transform to form A

— patent publication US11192860B2, “Co-crystal of an orally available HIF prolyl hydroxylase inhibitor” (Sandoz AG, priority 2017, dated 2021)
